Experimental data from PubChem BioAssay AID1963977 (Molecular Pharmacology Branch, DTP, NCI, 2024).

System: 624824-186-R-J3-PDC multicell spheroids, viability
Assay: Anticancer human tumor 624824-186-R-J3-PDC patient-derived colon adenocarcinoma cell line growth inhibition [PI3K]
Conditions: for IC50: curve of first compound; for viability, T/C: stronger effect = lower value
From the text: Combinatorial screen of targeted agents with the PI3K inhibitors inavolisib, alpelisib, duvelisib, and copanlisib in multi-cell type tumor spheroids
A high-throughput screen of multi-cell type tumor spheroids was designed to identify active combinations of targeted small molecules and PI3K pathway inhibitors. Complex spheroids include a stromal component modeled by human endothelial cells (HUVEC) and fibroblasts modeled by human mesenchymal stem cells (MSCs). The concentration ranges selected for each drug and investigational agent were based upon clinically achievable concentrations if the clinical Cmax of the agent was known.
Compounds. The drugs and investigational agents: inavolisib (NSC800729), alpelisib (NSC765974), duvelisib (NSC772469), copanlisib (NSC816437), ipatasertib (NSC767898), afuresertib (NSC778305), talazoparib (NSC767125), sapanisertib (NSC764658), selumetinib (NSC741078), tovorafenib (DAY101, NSC766906), vemurafenib (NSC761431), ravoxertinib (NSC781343), sotorasib (NSC818433), MRTX1133 (NSC 836407), abemaciclib (NSC 768073), palbociclib (NSC758247), venetoclax (NSC 766270), SY5609 (NSC837396), enzalutamide (NSC755605), and darolutamide (NSC825331), were obtained from the National Cancer Institute (NCI) Developmental Therapeutics Program Chemical Repository. The FDA-approved anticancer drug set is available from the NCI Developmental Therapeutics Program. […] The stock solutions were prepared in dimethyl sulfoxide (DMSO, Sigma-Aldrich, St. Louis, MO, cat. D2650) at 800-fold the tested concentration and stored at -70 degrees C prior to their use. All drugs and investigational agents were tested over a range starting from a high concentration at or near the clinical Cmax and decreasing in half-log increments. If the clinical Cmax for an agent had not been determined, the highest concentration tested was 10 microM.
Cell Culture. All cells were maintained in an incubator at 37 degrees C and 5% CO2 with 95% humidity. The PDC lines were cultured according to standard operating procedures established by the NCI PDMR (https://pdmr.cancer.gov/sops/default.htm). All PDCs were thawed and cultured in Matrigel-coated flasks prepared with a working solution of 1X Ham's F-12 nutrient mix, without supplementation (Invitrogen, Waltham, MA, cat. 11765054), 100 U/mL penicillin-streptomycin (Invitrogen, cat. 15140122), and 2.5% Matrigel (Corning Inc., Corning, NY, cat. 354248) for the first three passages. The 354836-022-R-J1-PDC, 475296-252-R-J1-PDC, and 997726-040-R-J2-PDC lines were cultured in 6A media, which includes advanced DMEM/F-12 (Thermo Fisher Scientific, cat. 12634028), 10 mM HEPES (Thermo Fisher Scientific, cat. 15630080), 1X GlutaMAX supplement (Thermo Fisher Scientific, cat. 35050061), 0.1 mg/mL primocin (InvivoGen, San Diego, CA, cat. ant-pm-2), 10% defined fetal bovine serum, heat inactivated (HyClone Laboratories Inc., Logan, UT, cat. SH30070.03HI), 50% L-WRN conditioned media (ATCC, cat. CRL-3276), 1.25 mM N-Acetyl-L-cysteine (Sigma-Aldrich, cat. A9165), 10 mM nicotinamide (Sigma-Aldrich, cat. N0636), 1X B-27 supplement (Thermo Fisher Scientific, cat. 17504044), 1X N-2 supplement (Thermo Fisher Scientific, cat. 17502048), and 10 microM Y-27632 dihydrochloride (Tocris Bioscience, Bristol, United Kingdom, cat. 1254). The 624824-186-R-J2-PDC line was cultured in 6C/Colon 1B media, which includes all 6A media components plus 50 ng/mL human EGF recombinant protein (Thermo Fisher Scientific, cat. PHG0311). […]

[1] = second compound 0.00316 µM, first compound 0.0316 µM
[2] = second compound 0.00316 µM, first compound 0.1 µM
[3] = second compound 0.00316 µM, first compound 0.316 µM
[4] = second compound 0.00316 µM, first compound 1 µM
[5] = second compound 0.00316 µM, first compound 3.16 µM
[6] = second compound 0.00316 µM, first compound 10 µM
[7] = second compound 0.01 µM, first compound 0.0316 µM
[8] = second compound 0.01 µM, first compound 0.1 µM
[9] = second compound 0.01 µM, first compound 0.316 µM
[10] = second compound 0.01 µM, first compound 1 µM
[11] = second compound 0.01 µM, first compound 3.16 µM
[12] = second compound 0.01 µM, first compound 10 µM
[13] = second compound 0.0316 µM, first compound 0.0316 µM
[14] = second compound 0.0316 µM, first compound 0.1 µM
[15] = second compound 0.0316 µM, first compound 0.316 µM
[16] = second compound 0.0316 µM, first compound 1 µM
[17] = second compound 0.0316 µM, first compound 3.16 µM
[18] = second compound 0.0316 µM, first compound 10 µM
[19] = second compound 0.1 µM, first compound 0.0316 µM
[20] = second compound 0.1 µM, first compound 0.1 µM
[21] = second compound 0.1 µM, first compound 0.316 µM
[22] = second compound 0.1 µM, first compound 1 µM
[23] = second compound 0.1 µM, first compound 3.16 µM
[24] = second compound 0.1 µM, first compound 10 µM
[25] = second compound 0.316 µM, first compound 0.0316 µM
[26] = second compound 0.316 µM, first compound 0.1 µM
[27] = second compound 0.316 µM, first compound 0.316 µM
[28] = second compound 0.316 µM, first compound 1 µM
[29] = second compound 0.316 µM, first compound 3.16 µM
[30] = second compound 0.316 µM, first compound 10 µM
[31] = second compound 1 µM, first compound 0.0316 µM
[32] = second compound 1 µM, first compound 0.1 µM
[33] = second compound 1 µM, first compound 0.316 µM
[34] = second compound 1 µM, first compound 1 µM
[35] = second compound 1 µM, first compound 3.16 µM
[36] = second compound 1 µM, first compound 10 µM
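Note: spheroids exposed to agents for seven days before luminescence read.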
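Throughout, for viability, T/C: luminescent signal used as a stand-in for spheroid viability; percent viability relative to DMSO vehicle control wells taken as 100%.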

## CC(C)NCC(C(=O)N1CCN(c2ncnc3c2C(C)CC3O)CC1)c1ccc(Cl)cc1 (stereo unspecified) + CC(Nc1ccc2c(c1)OCCn1cc(N3C(=O)OCC3C(F)F)nc1-2)C(N)=O
Second compound 0.00316 µM
  IC50: 6.8 µM
Second compound 0.01 µM
  IC50: 7.52 µM
Second compound 0.0316 µM
  IC50: 5.35 µM
Second compound 0.1 µM
  IC50: 7.68 µM
Second compound 0.316 µM
  IC50: 4.24 µM
Second compound 1 µM
  IC50: 3.44 µM
[1]
  viability, T/C: 107%
[2]
  viability, T/C: 96.8%
[3]
  viability, T/C: 97.7%
[4]
  viability, T/C: 73.1%
[5]
  viability, T/C: 59.9%
[6]
  viability, T/C: 45.4%
[7]
  viability, T/C: 98.3%
[8]
  viability, T/C: 96.8%
[9]
  viability, T/C: 99.4%
[10]
  viability, T/C: 72%
[11]
  viability, T/C: 63.8%
[12]
  viability, T/C: 45.3%
[13]
  viability, T/C: 96.2%
[14]
  viability, T/C: 93.4%
[15]
  viability, T/C: 91.6%
[16]
  viability, T/C: 77.4%
[17]
  viability, T/C: 57.2%
[18]
  viability, T/C: 41.7%
[19]
  viability, T/C: 108%
[20]
  viability, T/C: 94.1%
[21]
  viability, T/C: 88.1%
[22]
  viability, T/C: 83.7%
[23]
  viability, T/C: 59.5%
[24]
  viability, T/C: 46.4%
[25]
  viability, T/C: 96.2%
[26]
  viability, T/C: 91.8%
[27]
  viability, T/C: 94.4%
[28]
  viability, T/C: 72.5%
[29]
  viability, T/C: 54.2%
[30]
  viability, T/C: 41.9%
[31]
  viability, T/C: 92%
[32]
  viability, T/C: 88.8%
[33]
  viability, T/C: 86.1%
[34]
  viability, T/C: 65%
[35]
  viability, T/C: 53.6%
[36]
  viability, T/C: 35.1%

## CC1(C)CCC(CN2CCN(c3ccc(C(=O)NS(=O)(=O)c4ccc(NCC5CCOCC5)c([N+](=O)[O-])c4)c(Oc4cnc5[nH]ccc5c4)c3)CC2)=C(c2ccc(Cl)cc2)C1 + CC(Nc1ccc2c(c1)OCCn1cc(N3C(=O)OCC3C(F)F)nc1-2)C(N)=O
Second compound 0.00316 µM
  IC50: 9.41 µM
Second compound 0.01 µM
  IC50: 8.77 µM
Second compound 0.0316 µM
  IC50: 9.64 µM
Second compound 0.1 µM
  IC50: 9.37 µM
Second compound 0.316 µM
  IC50: > 10 µM
Second compound 1 µM
  IC50: 9.12 µM
[1]
  viability, T/C: 104%
[2]
  viability, T/C: 88.6%
[3]
  viability, T/C: 102%
[4]
  viability, T/C: 90.9%
[5]
  viability, T/C: 112%
[6]
  viability, T/C: 47.3%
[7]
  viability, T/C: 105%
[8]
  viability, T/C: 92%
[9]
  viability, T/C: 99.5%
[10]
  viability, T/C: 106%
[11]
  viability, T/C: 114%
[12]
  viability, T/C: 43.2%
[13]
  viability, T/C: 100%
[14]
  viability, T/C: 105%
[15]
  viability, T/C: 89.4%
[16]
  viability, T/C: 99%
[17]
  viability, T/C: 117%
[18]
  viability, T/C: 48.3%
[19]
  viability, T/C: 88.7%
[20]
  viability, T/C: 99.9%
[21]
  viability, T/C: 90.9%
[22]
  viability, T/C: 109%
[23]
  viability, T/C: 102%
[24]
  viability, T/C: 47.1%
[25]
  viability, T/C: 98.5%
[26]
  viability, T/C: 95.3%
[27]
  viability, T/C: 99.2%
[28]
  viability, T/C: 86.3%
[29]
  viability, T/C: 89%
[30]
  viability, T/C: 53.6%
[31]
  viability, T/C: 82.7%
[32]
  viability, T/C: 85.5%
[33]
  viability, T/C: 85.7%
[34]
  viability, T/C: 81.4%
[35]
  viability, T/C: 70.2%
[36]
  viability, T/C: 48.2%

## Cn1ncnc1[C@H]1c2n[nH]c(=O)c3cc(F)cc(c23)N[C@@H]1c1ccc(F)cc1 + CC(Nc1ccc2c(c1)OCCn1cc(N3C(=O)OCC3C(F)F)nc1-2)C(N)=O
Second compound 0.00316 µM
  IC50: > 0.1 µM
Second compound 0.01 µM
  IC50: > 0.1 µM
Second compound 0.0316 µM
  IC50: > 0.1 µM
Second compound 0.1 µM
  IC50: > 0.1 µM
Second compound 0.316 µM
  IC50: > 0.1 µM
Second compound 1 µM
  IC50: > 0.1 µM
Second compound 0.00316 µM, first compound 0.000316 µM
  viability, T/C: 102%
Second compound 0.00316 µM, first compound 0.001 µM
  viability, T/C: 93.5%
Second compound 0.00316 µM, first compound 0.00316 µM
  viability, T/C: 101%
Second compound 0.00316 µM, first compound 0.01 µM
  viability, T/C: 99.7%
[1]
  viability, T/C: 87.8%
[2]
  viability, T/C: 111%
Second compound 0.01 µM, first compound 0.000316 µM
  viability, T/C: 97.8%
Second compound 0.01 µM, first compound 0.001 µM
  viability, T/C: 93.6%
Second compound 0.01 µM, first compound 0.00316 µM
  viability, T/C: 102%
Second compound 0.01 µM, first compound 0.01 µM
  viability, T/C: 95.7%
[7]
  viability, T/C: 101%
[8]
  viability, T/C: 92.1%
Second compound 0.0316 µM, first compound 0.000316 µM
  viability, T/C: 107%
Second compound 0.0316 µM, first compound 0.001 µM
  viability, T/C: 99.7%
Second compound 0.0316 µM, first compound 0.00316 µM
  viability, T/C: 97.5%
Second compound 0.0316 µM, first compound 0.01 µM
  viability, T/C: 92.8%
[13]
  viability, T/C: 97.4%
[14]
  viability, T/C: 106%
Second compound 0.1 µM, first compound 0.000316 µM
  viability, T/C: 94.7%
Second compound 0.1 µM, first compound 0.001 µM
  viability, T/C: 105%
Second compound 0.1 µM, first compound 0.00316 µM
  viability, T/C: 100%
Second compound 0.1 µM, first compound 0.01 µM
  viability, T/C: 99.8%
[19]
  viability, T/C: 104%
[20]
  viability, T/C: 106%
Second compound 0.316 µM, first compound 0.000316 µM
  viability, T/C: 93.8%
Second compound 0.316 µM, first compound 0.001 µM
  viability, T/C: 99.3%
Second compound 0.316 µM, first compound 0.00316 µM
  viability, T/C: 98.2%
Second compound 0.316 µM, first compound 0.01 µM
  viability, T/C: 91.6%
[25]
  viability, T/C: 96.7%
[26]
  viability, T/C: 100%
Second compound 1 µM, first compound 0.000316 µM
  viability, T/C: 90.6%
Second compound 1 µM, first compound 0.001 µM
  viability, T/C: 90.3%
Second compound 1 µM, first compound 0.00316 µM
  viability, T/C: 94%
Second compound 1 µM, first compound 0.01 µM
  viability, T/C: 91.9%
[31]
  viability, T/C: 99.1%
[32]
  viability, T/C: 86.6%
